Measurements: patent US20060024239A1, “Persistent post-viral cough drug and treatment method” (priority 2004, published 2006)

Tested on: persistent post-viral cough
Experiment: Treatment of patients with persistent post-viral cough (case reports and the inventors' clinical experience)
Format: in vivo, human
Text: As opposed to what is found in the medical literature, in the usual patient that we have observed and treated for sub-acute or chronic cough after viral respiratory infection, evidence for post-nasal drip, sinusitis, asthma, or gastroesophageal reflux has been lacking. Physical examination of the nose, throat, sinuses, and chest has been unremarkable as have chest x-ray, and simple pulmonary function tests. Antihistamines and decongestants as might be used for post-nasal drip have proven disappointing and have rarely afforded relief of the persistent cough when tried. Antibiotic treatments likewise have been effective to alleviate cough only in rare instances. […] We have been surprised by the regularity with which this treatment has proven effective.
Because the respiratory tract is a continuous conduit, topical medications can be applied to the airways surface in aerosol form. The term “aerosol” as used herein is as conventionally defined to indicate either a liquid or solid particle suspended in gas. Many chemical entities in aerosol delivery devices, both liquid and solid, have been developed and marketed for treating respiratory disorders. These include aerosol medications for application to the nose or for inhalation through the mouth. We have utilized a variety of inhaled topical corticosteroid aerosols to treat persistent post-viral cough and have found them all to be generally effective. The following are two examples of aerosols and regimens that we have found effective: • Beclovent Inhalation Aerosol (beclomethasone diprroprionate, USP): two to three sprays t.i.d. for six days. • Pulmicort Turbuhaler® 200 mcg (budesonide powder): one spray t.i.d. for six days.
The inventors have improvised treatment for protracted post-viral cough in our patients by utilizing commercially available multi-dose corticosteroid aerosol inhalers that are not indicated for that purpose. These typically provide enough chemical agent for a 29-30 day period. They are neither labeled for short-term use or for treatment of post-viral cough. While we have not encountered medicinal side effects in our treated patients, a general principal of pharmacologic treatment is to avoid overuse of medication. The desirability to minimize treatment and minimize the use of corticosteroids in particular is well recognized. On occasion, the inventors have utilized smaller size inhaler samples with fewer dosing actuations that have been available through the courtesy of pharmaceutical representatives. Although less consistently available, the devices with lesser number of actuations are considered preferable to prevent inadvertent or purposeful overuse of medication. An aerosol device containing a corticosteroid agent for treatment of about two weeks or less is preferred, and about 7 days is most preferred. It is to be noted that, lacking labeling, no inhaled corticosteroid aerosol used experimentally by the inventors comprises a “drug” to treat the persistent post-viral cough patients as herein described.
The following case reports further exemplify the present invention: • 1. A person with no previous respiratory history had initial symptoms consisting of nasal congestion, rhinorrhea, post-nasal drip, and dry cough. All symptoms but cough resolved within two week and dry cough persisted for 28 days from onset.
We have likewise found prompt response to a short course treatment of inhaled corticosteroid in these individuals, for example: […]

SMILES | subsequent resolution of cough (case 1: 2 sprays (40 mcg@) tid for six days, after one week) | recurrence of cough (case 1: 2 sprays (40 mcg@) tid for six days, no further medication required) | improvement of cough at one week (case 1: dry cough for 28 days, 2 sprays (40 mcg@) tid for six days, slight residual in AM) | recurrence of cough (case 2: 2 sprays (40 mcg@) tid for five days) | resolution of cough (case 2: cough for 25 days, 2 sprays (40 mcg@) tid for five days) | recurrence of cough (case 3: 2 sprays (40 mcg@) tid for five days) | resolution of cough (case 3: severe dry cough for 22 days, 2 sprays (40 mcg@) tid for five days) | recurrence of cough (case 4: 2 sprays (40 mcg@) tid for ten days) | resolution of cough (case 4: severe dry cough for 6 weeks, 2 sprays (40 mcg@) tid for ten days) | resolution of symptoms (case 2: five-day course, 500 mg per day, initial cold symptoms with productive cough) | improvement of cough (case 4: 500 mg per day for five days)
C[C@H]1C[C@H]2[C@@H]3CCC4=CC(=O)C=C[C@]4(C)[C@@]3(Cl)[C@@H](O)C[C@]2(C)[C@@]1(O)C(=O)CO [Beclomethasone MDI, Beclomethasone] | complete resolution | did not reoccur | significant improvement of cough | no recurrence of cough | complete resolution of cough | no recurrence | complete resolution of cough | did not reoccur | complete resolution of cough |  | 
CC[C@H]1OC(=O)[C@H](C)[C@@H](O[C@H]2C[C@@](C)(OC)[C@@H](O)[C@H](C)O2)[C@H](C)[C@@H](O[C@@H]2O[C@H](C)C[C@H](N(C)C)[C@H]2O)[C@](C)(O)C[C@@H](C)CN(C)[C@H](C)[C@@H](O)[C@]1(C)O [azithromycin] |  |  |  |  |  |  |  |  |  | all symptoms resolved with the exception of a non-productive “tickling” cough | without improvement of the cough
